Results published in the supplement of paper PMC8612539.
Converted amounts (≈) assume the structure as drawn.

System: Pasteurella multocida
Test: minimum inhibitory concentration (MIC)
Experimental: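 Broth microdilution MIC (Sensititre BOPO7F bovine plate, CLSI methods) of 19 antimicrobials against field isolates of P. multocida, M. haemolytica, H. somni (deep nasopharyngeal swabs) and E. coli, Enterococcus spp. (rectal swabs) from weaned dairy heifers. Incubation 16-24 h at 35 C. MIC is the lowest concentration preventing visible growth. Values with <= or > lie at the tested range limits. Trimethoprim-sulfamethoxazole is given as the trimethoprim component of a 1:19 mixture.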

CC[C@H]1OC(=O)C[C@@H](O)[C@H](C)[C@@H](O[C@@H]2O[C@H](C)[C@@H](O[C@H]3C[C@@](C)(O)[C@@H](O)[C@H](C)O3)[C@H](N(C)C)[C@H]2O)[C@@H](CC=O)C[C@@H](C)C(=O)/C=C/C(C)=C/[C@@H]1CO[C@@H]1O[C@H](C)[C@@H](O)[C@@H](OC)[C@H]1OC [Tylosin]
Settings	minimum inhibitory concentration [mg/L]
isolate (source animal id): 10	> 32
isolate (source animal id): 11	> 32
isolate (source animal id): 12	> 32
isolate (source animal id): 19	> 32
isolate (source animal id): 23	> 32
isolate (source animal id): 26	> 32
isolate (source animal id): 98	> 32
isolate (source animal id): 104	> 32
isolate (source animal id): 115	> 32
isolate (source animal id): 117	> 32
isolate (source animal id): 118	> 32
isolate (source animal id): 121	> 32
isolate (source animal id): 124	> 32
isolate (source animal id): 125	> 32
isolate (source animal id): 128	> 32
isolate (source animal id): 131	> 32
isolate (source animal id): 135	> 32
isolate (source animal id): 136	> 32
isolate (source animal id): 140	> 32
isolate (source animal id): 144	> 32
isolate (source animal id): 146	> 32
isolate (source animal id): 150	> 32
isolate (source animal id): 151	> 32
isolate (source animal id): 153	> 32
isolate (source animal id): 155	> 32
isolate (source animal id): 157	> 32
isolate (source animal id): 160	> 32
isolate (source animal id): 164	> 32
isolate (source animal id): 165	> 32
isolate (source animal id): 167	> 32
isolate (source animal id): 168	> 32
isolate (source animal id): 169	> 32
isolate (source animal id): 170	> 32
isolate (source animal id): 171	> 32
isolate (source animal id): 172	> 32
isolate (source animal id): 173	> 32
isolate (source animal id): 174	> 32
isolate (source animal id): 175	> 32
isolate (source animal id): 176	> 32
isolate (source animal id): 177	> 32
isolate (source animal id): 178	> 32
isolate (source animal id): 179	32 (≈ 34.9 µM)
isolate (source animal id): 182	> 32
isolate (source animal id): 192	> 32
isolate (source animal id): 193	32 (≈ 34.9 µM)
isolate (source animal id): 195	32 (≈ 34.9 µM)
isolate (source animal id): 196	> 32
isolate (source animal id): 197	> 32
isolate (source animal id): 198	> 32
isolate (source animal id): 199	> 32
isolate (source animal id): 200	> 32
isolate (source animal id): 201	> 32
isolate (source animal id): 203	32 (≈ 34.9 µM)
isolate (source animal id): 204	> 32
isolate (source animal id): 205	> 32
isolate (source animal id): 206	> 32
isolate (source animal id): 207	32 (≈ 34.9 µM)
isolate (source animal id): 208	32 (≈ 34.9 µM)
isolate (source animal id): 209	32 (≈ 34.9 µM)
isolate (source animal id): 210	> 32
isolate (source animal id): 213	32 (≈ 34.9 µM)
isolate (source animal id): 216	> 32
isolate (source animal id): 223	> 32
isolate (source animal id): 227	32 (≈ 34.9 µM)
isolate (source animal id): 229	> 32
isolate (source animal id): 233	> 32
isolate (source animal id): 234	> 32
isolate (source animal id): 237	> 32
isolate (source animal id): 241	> 32
isolate (source animal id): 245	> 32
isolate (source animal id): 247	> 32
isolate (source animal id): 250	> 32
isolate (source animal id): 254	> 32
isolate (source animal id): 255	> 32
isolate (source animal id): 258	32 (≈ 34.9 µM)
isolate (source animal id): 261	> 32
isolate (source animal id): 262	> 32
isolate (source animal id): 269	> 32
isolate (source animal id): 270	> 32
isolate (source animal id): 274	> 32
isolate (source animal id): 275	> 32
isolate (source animal id): 276	> 32
isolate (source animal id): 277	> 32
isolate (source animal id): 278	> 32
isolate (source animal id): 279	> 32
isolate (source animal id): 280	> 32
isolate (source animal id): 284	> 32
isolate (source animal id): 285	> 32
isolate (source animal id): 287	> 32
isolate (source animal id): 290	> 32
isolate (source animal id): 294	> 32
isolate (source animal id): 295	> 32
isolate (source animal id): 296	> 32
isolate (source animal id): 307	> 32
isolate (source animal id): 310	> 32
isolate (source animal id): 311	> 32
isolate (source animal id): 312	> 32
isolate (source animal id): 313	> 32
isolate (source animal id): 315	> 32
isolate (source animal id): 316	> 32

CCCNC[C@]1(O)[C@H](C)O[C@@H](O[C@H]2[C@H](C)[C@@H](O[C@@H]3O[C@H](C)C[C@H](N(C)C)[C@H]3O)[C@](C)(O)C[C@@H](C)CN[C@H](C)[C@@H](O)[C@](C)(O)[C@@H](CC)OC(=O)[C@@H]2C)C[C@@]1(C)OC [Tulathromycin]
Settings	minimum inhibitory concentration [mg/L]
isolate (source animal id): 10	≤ 8
isolate (source animal id): 11	32 (≈ 39.7 µM)
isolate (source animal id): 12	32 (≈ 39.7 µM)
isolate (source animal id): 19	32 (≈ 39.7 µM)
isolate (source animal id): 23	16 (≈ 19.8 µM)
isolate (source animal id): 26	≤ 8
isolate (source animal id): 98	≤ 8
isolate (source animal id): 104	> 64
isolate (source animal id): 115	32 (≈ 39.7 µM)
isolate (source animal id): 117	≤ 8
isolate (source animal id): 118	16 (≈ 19.8 µM)
isolate (source animal id): 121	32 (≈ 39.7 µM)
isolate (source animal id): 124	≤ 8
isolate (source animal id): 125	≤ 8
isolate (source animal id): 128	32 (≈ 39.7 µM)
isolate (source animal id): 131	> 64
isolate (source animal id): 135	> 64
isolate (source animal id): 136	32 (≈ 39.7 µM)
isolate (source animal id): 140	16 (≈ 19.8 µM)
isolate (source animal id): 144	16 (≈ 19.8 µM)
isolate (source animal id): 146	16 (≈ 19.8 µM)
isolate (source animal id): 150	64 (≈ 79.4 µM)
isolate (source animal id): 151	64 (≈ 79.4 µM)
isolate (source animal id): 153	16 (≈ 19.8 µM)
isolate (source animal id): 155	≤ 8
isolate (source animal id): 157	≤ 8
isolate (source animal id): 160	64 (≈ 79.4 µM)
isolate (source animal id): 164	64 (≈ 79.4 µM)
isolate (source animal id): 165	64 (≈ 79.4 µM)
isolate (source animal id): 167	≤ 8
isolate (source animal id): 168	≤ 8
isolate (source animal id): 169	≤ 8
isolate (source animal id): 170	≤ 8
isolate (source animal id): 171	≤ 8
isolate (source animal id): 172	≤ 8
isolate (source animal id): 173	16 (≈ 19.8 µM)
isolate (source animal id): 174	≤ 8
isolate (source animal id): 175	≤ 8
isolate (source animal id): 176	≤ 8
isolate (source animal id): 177	≤ 8
isolate (source animal id): 178	≤ 8
isolate (source animal id): 179	≤ 8
isolate (source animal id): 182	≤ 8
isolate (source animal id): 192	≤ 8
isolate (source animal id): 193	≤ 8
isolate (source animal id): 195	≤ 8
isolate (source animal id): 196	≤ 8
isolate (source animal id): 197	≤ 8
isolate (source animal id): 198	16 (≈ 19.8 µM)
isolate (source animal id): 199	≤ 8
isolate (source animal id): 200	≤ 8
isolate (source animal id): 201	≤ 8
isolate (source animal id): 203	≤ 8
isolate (source animal id): 204	≤ 8
isolate (source animal id): 205	16 (≈ 19.8 µM)
isolate (source animal id): 206	≤ 8
isolate (source animal id): 207	≤ 8
isolate (source animal id): 208	≤ 8
isolate (source animal id): 209	≤ 8
isolate (source animal id): 210	16 (≈ 19.8 µM)
isolate (source animal id): 213	≤ 8
isolate (source animal id): 216	≤ 8
isolate (source animal id): 223	16 (≈ 19.8 µM)
isolate (source animal id): 227	≤ 8
isolate (source animal id): 229	≤ 8
isolate (source animal id): 233	≤ 8
isolate (source animal id): 234	≤ 8
isolate (source animal id): 237	16 (≈ 19.8 µM)
isolate (source animal id): 241	16 (≈ 19.8 µM)
isolate (source animal id): 245	≤ 8
isolate (source animal id): 247	16 (≈ 19.8 µM)
isolate (source animal id): 250	≤ 8
isolate (source animal id): 254	32 (≈ 39.7 µM)
isolate (source animal id): 255	16 (≈ 19.8 µM)
isolate (source animal id): 258	≤ 8
isolate (source animal id): 261	≤ 8
isolate (source animal id): 262	16 (≈ 19.8 µM)
isolate (source animal id): 269	≤ 8
isolate (source animal id): 270	≤ 8
isolate (source animal id): 274	≤ 8
isolate (source animal id): 275	≤ 8
isolate (source animal id): 276	16 (≈ 19.8 µM)
isolate (source animal id): 277	≤ 8
isolate (source animal id): 278	≤ 8
isolate (source animal id): 279	≤ 8
isolate (source animal id): 280	> 64
isolate (source animal id): 284	≤ 8
isolate (source animal id): 285	16 (≈ 19.8 µM)
isolate (source animal id): 287	16 (≈ 19.8 µM)
isolate (source animal id): 290	≤ 8
isolate (source animal id): 294	≤ 8
isolate (source animal id): 295	16 (≈ 19.8 µM)
isolate (source animal id): 296	≤ 8
isolate (source animal id): 307	≤ 8
isolate (source animal id): 310	16 (≈ 19.8 µM)
isolate (source animal id): 311	16 (≈ 19.8 µM)
isolate (source animal id): 312	≤ 8
isolate (source animal id): 313	16 (≈ 19.8 µM)
isolate (source animal id): 315	16 (≈ 19.8 µM)
isolate (source animal id): 316	16 (≈ 19.8 µM)
